Test results as given in patent US20150368195A1, “INDOLINE COMPOUNDS FOR TREATMENT AND/OR PREVENTION OF INFLAMMATION DISEASES” (Taipei Medical University, priority 2014, published 2015).
Entries after “also recorded” stand apart in the source; their conditions may differ.

Columns and labels:
nitric oxide (NO) = test: LPS-induced nitric oxide production in RAW 264.7 macrophages; type: cell-based, Mouse
Protocol: Nitrite concentration was determined using a dilution of sodium nitrite as a standard.
(§1) Furthermore, the anti-inflammatory effects of MPT0G009 was evaluated. […] These supernatants were then assayed for PGE2, NO, and IL-6.

prostaglandin E2 (PGE2) = test: LPS-induced PGE2 production in RAW 264.7 macrophages; type: cell-based, Mouse
Protocol: as §1

IL-6 = test: IL-1β-induced IL-6 production by RA-FLS; type: cell-based; conditions: MPT0G009 0.1, 1, 10 μM; SAHA 0.3, 3, 30 μM; IL-1β 10 ng/mL 24 h
Protocol: (§2) (FIG. 1A) Structure of MPT0G009. […] Results in (FIGS. 1B-E) and (FIG. 1G) are means±SEM's for three independent experiments, *p<0.05 and **p<0.01 compared with no added inhibitor.
as §1

p21 = p21 expression by flow cytometry or western blot in RA-FLS; type: cell-based; conditions: 24 h, 1 μM MPT0G009 or 3 μM SAHA
From the text: as §2

[1] = in vivo rat pharmacokinetic profiling; parameters: species or system rats
From the text: The pharmokinetic parameters of MPT0G009 in rats after single-dose intravenous (i.v.) and oral administration are summarized in Table 2. […].

collagen I = test: TGF-β-induced collagen I production, Western blot; type: cell-based, human; conditions: WI-38 lung fibroblasts; 1 μM pretreatment; TGF-β 10 ng/mL 24 h
Protocol: Western blot analysis was performed. First, WI-38 lung fibroblasts were incubated with different concentrations of MPT0E028 (0.01, 0.03, 0.1, 0.3, or 1 μM) (FIG. 10A) or MPT0G009 (0.01, 0.03, 0.1, 0.3, or 1 μM) (FIG. 10B) for 30 min before and during incubation for 2 h with TGF-β (10 ng/mL). WI-38 lung fibroblasts were incubated with 1 μM MPT0E028 and MPT0G009 for 30 min and following another incubation for 2 h with 1 U/ml thrombin (FIG. 10C) and 10 nM ET-1 (FIG. 10D). The collagen I production from WI-38 lung fibroblasts stimulated by 10 ng/mL TGF-β for 24 h was inhibited with 1 μM MPT0E028 and MPT0G009 pretreatment (FIG. 10E).
WI-38 cells, a normal human embryonic lung fibroblast cell line, were obtained from American Type Culture Collection (Manassas, Va.). […]
Western blot analyses were performed as described previously (Chen B C, Chang Y S, Kang J C, Hsu M J, Sheu J R, Chen T L, et al. Peptidoglycan induces nuclear factor-kappaB activation and cyclooxygenase-2 expression via Ras, Raf-1, and ERK in RAW 264.7 macrophages. J Biol Chem 2004; 279:20889-97). […] The immunoreactivity was detected using enhanced chemiluminescence (ECL) following the manufacturer's instructions. Quantitative data were obtained using a computing densitometer with scientific imaging systems (Kodak, Rochester, N.Y.). […]

[2] = test system: carrageenan-induced hind paw edema; test: carrageenan-induced hind paw edema
Protocol: A 0.5% (w/v) suspension of carrageenan in normal saline was administered to male Wistar rats (7-weeks) by intradermal injection into the base of the right hind paw. […] A positive control group was included in which rats were pretreated with 5 mg/kg Indomethacin. […] The results are expressed as the mean±SEM, with n=5. *p<0.05 compared to the control group; #p<0.05 for the comparison of the indicated groups.
Animals were divided into four groups (n=5). 0.5% (w/v) suspension of carrageenan in normal saline was administered to male Wistar rats (7-weeks) by intradermal injection into the base of the right hind paw. […] A positive control group was included in which rats were pretreated with 5 mg/kg Indomethacin. Three hours after carrageenan administration, the thickness and volume of the right hind paw were measured by digital caliper and digital plethysmometer (Diagnostic & Research Instruments CO., Ltd, Taipei, Taiwan), respectively.

interleukin-6 (IL-6) = test: LPS-induced IL-6 production in RAW 264.7 macrophages; conditions: Mus musculus, RAW264.7, read-out: IC50 IL-6
[3] = test system: tumor necrosis factor-α (TNF-α); test: LPS-induced TNF-α production in RAW 264.7 macrophages; conditions: Mus musculus, RAW264.7, read-out: IC50 TNF-α
HDAC1 and HDAC6 = test: overexpression of HDAC1 and HDAC6 in RAW264.7 macrophages or RA-FLS
Protocol: Cells were then tartrate resistant acid phosphatase
(TRAP) stained, and the numbers of TRAP-positive multinuclear cells were counted (FIG. 7D) or were incubated with a fluorescein isothiocyanate (FITC)-conjugated anti-CD51/61 antibody and analyzed by flow cytometry (FIG. 7E).

[4] = MPT0G009 0.1, 1, 10 μM, SAHA 0.3, 3, 30 μM, LPS 25 ng/mL 24 h
[5] = Mus musculus, RAW264.7, LPS-stimulated RAW 264.7 macrophages, mean ± SEM, three experiments

In the case of COc1ccc(S(=O)(=O)N2CCc3cc(C=CC(=O)NO)ccc32)cc1 [Compound 9, 3-[1-(4-methoxybenzenesulfonyl)-2,3-dihydro-1H-indol-5-yl]-N-Hydroxyacrylamide], the “NO production by RAW264.7 cells” value (nitric oxide (NO); [4]) is reported as “inhibited”, the IC50 (nitric oxide (NO); [5]) is reported as 1070 nM and the “PGE2 production by RAW264.7 cells” value (prostaglandin E2 (PGE2); [4]) is reported as “inhibited”. The IC50 (prostaglandin E2 (PGE2); [5]) was 520 nM, the “IL-6 production by RA-FLS” value (IL-6) was “inhibited” and the “expression of p21” value (p21) was “significantly increased”. The T1/2 ([1]; rat, in vivo, iv, 2 mg/kg) was 6.74 h, the Vd ([1]; rat, in vivo, iv, 2 mg/kg) was 25.21 L/kg and the T1/2 ([1]; rat, in vivo, po, 20 mg/kg) was 9.53 h. For the same molecule, the F ([1]; rats, po 20 mg/kg, MPT0G009) was 13.0%, the “collagen I production” value (collagen I) was “inhibited” and the “paw thickness reduced compared to control” value ([2]; compound 9 25 mg/kg oral, 3 h after carrageenan) was 21.3%. The “carrageenan-induced hind paw edema” value ([2]; oral, 1 h before carrageenan, compound 9 25 mg/kg, SAHA 200 mg/kg, Indomethacin 5 mg/kg, measured 3 h after) was “significantly inhibited; also recorded: suppress”, the IC50 (interleukin-6 (IL-6)) was 10 nM and the IC50 [3] was 520 nM. The “effect of HDAC overexpression on inhibition of M-CSF/RANKL-induced osteoclast differentiation and CD51/61 expression” value (HDAC1 and HDAC6; 5 nM MPT0G009, transfected RAW264.7) was “significantly reduced” and the “effect of HDAC overexpression on inhibition of LPS-mediated NO or PGE2 release” value (HDAC1 and HDAC6; 10 μM MPT0G009 or 30 μM SAHA, HDAC1- and HDAC6-coexpressing RAW264.7 or RA-FLS) was “significantly reduced the inhibitory effects”.
